US7981883B2, “Substituted spiro-compounds and the use thereof for producing medicaments” (Gruenenthal GmbH, priority 2005, dated 2011)

Columns and labels:
Assay type in all cases: cell-based
VR1 (rat) [1] = molecular target: T1, VR1 (rat) (Rattus norvegicus, UniProt O35433); experiment: Functional FLIPR Ca2+ inflow assay on rat-species vanilloid receptor 1 in rat dorsal root ganglia cells; settings: test compound 10 μM; for inhibition at 10 µM / VR1 (rat) (% inhibition compared to 10 μM CP): then 100 nM capsaicin after 5 min, relative to maximum inhibition with 10 μM capsaicin; for inhibition at 10 µM: read-out: VR1 (rat) (% inhibition compared to 10 μM CP); for activation at 10 µM / VR1 (rat) (% stimulation compared to 10 μM CP): Ca2+ signal relative to 10 μM capsaicin (CP); for activation at 10 µM: read-out: VR1 (rat) (% stimulation compared to 10 μM CP)
T1 construct: from tissue; host or cells: primary cells dissociated from rat dorsal root ganglia
T1 sequence (O35433 whole entry): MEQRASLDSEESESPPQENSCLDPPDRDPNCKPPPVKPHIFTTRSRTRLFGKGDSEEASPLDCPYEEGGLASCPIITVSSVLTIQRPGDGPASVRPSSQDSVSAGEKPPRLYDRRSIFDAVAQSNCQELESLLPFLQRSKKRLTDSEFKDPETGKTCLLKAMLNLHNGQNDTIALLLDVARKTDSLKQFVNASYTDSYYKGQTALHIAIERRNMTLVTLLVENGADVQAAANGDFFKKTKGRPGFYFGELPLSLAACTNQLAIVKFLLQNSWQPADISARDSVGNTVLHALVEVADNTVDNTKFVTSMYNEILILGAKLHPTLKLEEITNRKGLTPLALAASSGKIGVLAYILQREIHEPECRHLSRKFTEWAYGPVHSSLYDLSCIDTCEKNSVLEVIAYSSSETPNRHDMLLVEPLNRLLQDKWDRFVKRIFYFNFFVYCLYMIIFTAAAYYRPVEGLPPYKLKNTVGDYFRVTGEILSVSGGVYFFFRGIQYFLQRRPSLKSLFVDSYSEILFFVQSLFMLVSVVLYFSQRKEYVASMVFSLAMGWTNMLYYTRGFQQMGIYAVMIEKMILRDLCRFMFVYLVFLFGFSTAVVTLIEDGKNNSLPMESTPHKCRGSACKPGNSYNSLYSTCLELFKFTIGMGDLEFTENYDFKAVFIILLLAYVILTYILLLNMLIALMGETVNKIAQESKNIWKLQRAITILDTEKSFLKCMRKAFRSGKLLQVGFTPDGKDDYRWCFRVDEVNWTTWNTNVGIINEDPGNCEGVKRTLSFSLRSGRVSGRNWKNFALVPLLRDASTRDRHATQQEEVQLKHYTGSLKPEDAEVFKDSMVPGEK
Source text: I. Functional Testing Carried Out on the Vanilloid Receptor 1 (VR1/TRPV1 Receptor)
(§1) The agonistic or antagonistic effect of the substances to be tested can be determined on the rat-species vanilloid receptor 1 (VR1/TRPV1) using the following assay. According to this assay, the Ca^2+ inflow is quantified through the receptor channel using a Ca^2+-sensitive dye (type Fluo-4, Molecular Probes Europe BV, Leiden, Netherlands) in a fluorescent imaging plate reader (FLIPR, Molecular Devices, Sunnyvale, USA).
Complete medium: 50 mL HAMS F12 nutrient mixture (Gibco Invitrogen GmbH, Karlsruhe, Germany) with
10% by volume of FCS (foetal calf serum, Gibco Invitrogen GmbH, Karlsruhe, Germany, […]);
2 mM L-glutamine (Sigma, Munich, Germany);
1% by weight of AA solution (antibiotic/antimyotic solution, PAA, Pasching, Austria) and 25 ng/ml NGF medium (2.5 S, Gibco Invitrogen GmbH, Karlsruhe, Germany)
Cell culture plate: Poly-D-lysine-coated, black 96 well plates having a clear base (96 well black/clear plate, BD Biosciences, Heidelberg, Germany) were additionally coated with laminin (Gibco Invitrogen GmbH, Karlsruhe, Germany), the laminin being diluted with PBS (Ca—Mg-free PBS, Gibco Invitrogen GmbH, Karlsruhe, Germany) to a concentration of 100 μg/mL. Aliquots having a laminin concentration of 100 μg/mL were removed and stored at −20° C. The aliquots were diluted with PBS in a ratio of 1:10 to 10 μg/mL laminin and in each case 50 μL of the solution were pipetted into a recess in the cell culture plate. The cell culture plates were incubated for at least two hours at 37° C., the excess solution was removed by suction-filtration and the recesses were each washed twice with PBS. The coated cell culture plates were stored with excess PBS which was not removed until just before the feeding of the cells.
The vertebral column was removed from decapitated rats and placed immediately into cold HBSS buffer (Hank's buffered saline solution, Gibco Invitrogen GmbH, Karlsruhe, Germany), i.e. buffer located in an ice bath, mixed with 1% by volume (percent by volume) of an AA solution (antibiotic/antimyotic solution, PAA, Pasching, Austria). The vertebral column was cut longitudinally and removed together with fasciae from the vertebral canal. Subsequently, the dorsal root ganglia (DRG) were removed and again stored in cold HBSS buffer mixed with 1% by volume of an AA solution. The DRG, from which all blood remnants and spinal nerves had been removed, were transferred in each case to 500 μL of cold type 2 collagenase (PAA, Pasching, Austria) and incubated for 35 minutes at 37° C. After the addition of 2.5% by volume of trypsin (PAA, Pasching, Austria), incubation was continued for 10 minutes at 37° C. After complete incubation, the enzyme solution was carefully pipetted off and 500 μL of complete medium were added to each of the remaining DRG. The DRG were in each case suspended several times, drawn through cannulae No. 1, No. 12 and No. 16 using a syringe and transferred to a 50 mL Falcon tube which was filled up to 15 mL with complete medium. The contents of each Falcon tube was in each case filtered through a 70 μm Falcon filter element and centrifuged for 10 minutes at 1,200 rpm and room temperature. The resulting pellet was in each case taken up in 250 μL of complete medium and the number of cells determined.
The number of cells in the suspension was set to 3×10^5 per mL and 150 μL of this suspension were in each case introduced into a recess in the cell culture plates coated as described hereinbefore. In the incubator the plates were left for two to three days at 37° C., 5% by volume of CO2 and 95% relative humidity. […]

VR1 (rat) [2] = molecular target: T1, VR1 (rat); experiment: as above; settings: against capsaicin (CAP)
VR1 (human) [3] = molecular target: T2, VR1 (human) (Homo sapiens, UniProt Q8NER1); experiment: Functional FLIPR Ca2+ inflow assay on VR1 (human), CHO K1 cells stably transfected with the VR1 gene; settings: test compound 10 μM; for inhibition at 10 µM / activation at 10 µM: CHO-K1; for inhibition at 10 µM / VR1 (human) (% inhibition compared to 10 μM CP): then 100 nM capsaicin after 5 min, relative to maximum inhibition with 10 μM capsaicin; for inhibition at 10 µM: read-out: VR1 (human) (% inhibition compared to 10 μM CP); for activation at 10 µM / VR1 (human) (% stimulation compared to 10 μM CP): Ca2+ signal relative to 10 μM capsaicin (CP); for activation at 10 µM: read-out: VR1 (human) (% stimulation compared to 10 μM CP)
T2 construct: expressed in transfected cells; host or cells: CHO K1 cells (ECACC)
T2 sequence (Q8NER1 whole entry): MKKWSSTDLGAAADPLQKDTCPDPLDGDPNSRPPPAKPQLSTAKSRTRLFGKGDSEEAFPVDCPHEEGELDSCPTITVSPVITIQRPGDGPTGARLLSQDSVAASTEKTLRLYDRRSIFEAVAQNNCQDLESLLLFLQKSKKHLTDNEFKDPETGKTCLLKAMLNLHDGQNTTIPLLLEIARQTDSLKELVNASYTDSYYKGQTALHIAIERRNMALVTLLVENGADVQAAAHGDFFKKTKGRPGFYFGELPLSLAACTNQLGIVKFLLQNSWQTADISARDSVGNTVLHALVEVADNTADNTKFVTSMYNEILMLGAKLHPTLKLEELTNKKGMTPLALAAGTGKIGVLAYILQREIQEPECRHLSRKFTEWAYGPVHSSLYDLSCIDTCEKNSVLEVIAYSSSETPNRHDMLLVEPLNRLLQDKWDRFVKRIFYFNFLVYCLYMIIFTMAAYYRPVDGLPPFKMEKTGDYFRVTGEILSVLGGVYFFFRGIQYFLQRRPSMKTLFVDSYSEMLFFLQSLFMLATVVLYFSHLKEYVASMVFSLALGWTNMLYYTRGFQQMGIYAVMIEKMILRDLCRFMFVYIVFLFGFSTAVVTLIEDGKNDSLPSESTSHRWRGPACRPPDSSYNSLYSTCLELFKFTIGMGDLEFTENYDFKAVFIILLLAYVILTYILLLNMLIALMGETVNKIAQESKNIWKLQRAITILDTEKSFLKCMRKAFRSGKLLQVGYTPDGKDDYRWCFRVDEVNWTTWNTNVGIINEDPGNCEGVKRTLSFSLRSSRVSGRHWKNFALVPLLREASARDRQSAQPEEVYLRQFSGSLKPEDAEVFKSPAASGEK
Source text: II. Functional Testing Carried Out on the Vanilloid Receptor (VR1)
as §1, with “can also” for “can”, “the” for “the rat-species”, “(VR1)” for “1 (VR1/TRPV1)”, “the” for “the receptor”
Chinese hamster ovary cells (CHO K1 cells, European Collection of Cell Cultures (ECACC) United Kingdom) were stably transfected with the VR1 gene. For functional testing, these cells were plated out on poly-D-lysine-coated black 96 well plates having a clear base (BD Biosciences, Heidelberg, Germany) at a density of 25,000 cells/well. The cells were incubated overnight at 37° C. and 5% CO2 in a culture medium (Ham's F12 nutrient mixture, 10% by volume of FCS (foetal calf serum), 18 μg/ml L-proline). The next day the cells were incubated with Fluo-4 (Fluo-4 2 μM, 0.01% by volume of Pluronic F127, Molecular Probes in HBSS (Hank's buffered saline solution), Gibco Invitrogen GmbH, Karlsruhe, Germany) for 30 minutes at 37° C. Subsequently, the plates were washed three times with HBSS buffer and after further incubation for 15 minutes at room temperature used for Ca^2+ measurement in a FLIPR assay. The Ca^2+-dependent fluorescence was measured before and after the addition of the substances to be tested (λex wavelength=488 nm, λem=540 nm). Quantification was carried out by measuring the highest fluorescence intensity (FC, Fluorescence Counts) over time.
The FLIPR protocol consists of 2 substance additions. First the compounds to be tested (10 μM) were pipetted onto the cells and the Ca^2+ inflow was compared with the control (capsaicin 10 μM) (% activation based on the Ca^2+ signal after the addition of 10 μM capsaicin). After 5 minutes' incubation, 100 nM of capsaicin were administered and the Ca^2+ inflow was also determined.
Desensitising agonists and antagonists led to suppression of the Ca^2+ inflow. The % inhibition was calculated compared to the maximum achievable inhibition with 10 μM of capsaicin.

VR1 (human) [4] = molecular target: T2, VR1 (human); experiment: as above; settings: against capsaicin (CAP)

inhibition at 10 µM (VR1 (rat) [1]) [%]	activation at 10 µM (VR1 (rat) [1]) [%]	IC50 (VR1 (rat) [2]) [nM]	Ki (VR1 (rat) [2]) [nM]	inhibition at 10 µM (VR1 (human) [3]) [%]	activation at 10 µM (VR1 (human) [3]) [%]	VR1 (rat) (% inhibition compared to 10 μM CP) (VR1 (rat) [1]) [%]	VR1 (rat) (% stimulation compared to 10 μM CP) (VR1 (rat) [1]) [%]	VR1 (human) (% inhibition compared to 10 μM CP) (VR1 (human) [3]) [%]	VR1 (human) (% stimulation compared to 10 μM CP) (VR1 (human) [3]) [%]	IC50 (VR1 (human) [4]) [µM]	Ki (VR1 (human) [4]) [µM]	SMILES
97	60	545	63.7	64	15	–	–	–	–	–	–	CC(C)(C)c1ccc(NC(=O)C2CCC3(CC2)CC(c2ccccc2)=NO3)cc1 (stereo not drawn) [Example 50, 3-phenyl-1-oxa-2-azaspiro[4.5]dec-2-ene-8-carboxylic acid-(4-tert-butylphenyl)amide]
–	–	1550	894	–	–	91.46	1.05	61.74	0.41	3.34	4.86	CC(C)(C)[C@H]1CC[C@@]2(CC1)CC(C(=O)N1CCN(c3ncccc3C(F)(F)F)CC1)=NO2 [Example 9, cis-(8-tert-butyl-1-oxa-2-azaspiro[4.5]dec-2-en-3-yl)-[4-(3-trifluoromethylpyridin-2-yl)piperazin-1-yl]methanone]
–	–	–	–	–	–	62.42	−0.37	28.56	−0.05	–	–	CC(C)(C)[C@H]1CC[C@@]2(CC1)CC(C(=O)N1CCN(c3ccc(O)cc3)CC1)=NO2 [Example 11, cis-(8-tert-butyl-1-oxa-2-azaspiro[4.5]dec-2-en-3-yl)-[4-(4-hydroxyphenyl)piperazin-1-yl]methanone]
–	–	–	–	–	–	58.92	0.33	14.95	−0.05	–	–	CC(C)(C)[C@H]1CC[C@@]2(CC1)CC(C(=O)N1CCN(c3nsnc3Cl)CC1)=NO2 [Example 17, cis-(8-tert-butyl-1-oxa-2-azaspiro[4.5]dec-2-en-3-yl)-[4-(4-chloro-[1,2,5]thiadiazol-3-yl)piperazin-1-yl]methanone]
94.3	112	–	–	79.9	101	–	–	–	–	–	–	CC(C)(C)C1CCC2(CC1)CC(C(=O)N1CCc3cc(O)c(O)cc3C1)=NO2 (stereo not drawn) [Example 12, (8-tert-butyl-1-oxa-2-azaspiro[4.5]dec-2-en-3-yl)-(6,7-dihydroxy-3,4-dihydro-1H-isoquinolin-2-yl)methanone]
–	–	–	–	–	–	16.63	−0.37	0.14	0.13	–	–	CC(C)(C)[C@H]1CC[C@@]2(CC1)CC(C(=O)N1CCCN(c3ncccc3Cl)CC1)=NO2 [Example 22, cis-(8-tert-butyl-1-oxa-2-azaspiro[4.5]dec-2-en-3-yl)-[4-(3-chloropyridin-2-yl)-[1,4]diazepan-1-yl]methanone]
–	–	–	–	–	–	97.15	0.57	20.73	0.22	–	–	CC(C)(C)[C@H]1CC[C@]2(CC1)CC(C(=O)N1CCN(c3ncccc3C(F)(F)F)CC1)=NO2 [Example 8, trans-(8-tert-butyl-1-oxa-2-azaspiro[4.5]dec-2-en-3-yl)-[4-(3-trifluoromethylpyridin-2-yl)piperazin-1-yl]methanone]
103	48	1220	341	42	35	–	–	–	–	2.87	2.05	CCC(C)(C)C1CCC2(CC1)CC(C(=O)NCc1ccc(NS(C)(=O)=O)c(F)c1)=NO2 (stereo not drawn) [Example 80, N-(3-fluoro-4-(methylsulphonamido)benzyl)-8-tert-pentyl-1-oxa-2-azaspiro[4.5]dec-2-ene-3-carboxamide]
–	–	–	–	–	–	97.62	84.04	22.05	24.24	–	–	COc1cc2c(cc1OC)CN(C(=O)C1=NO[C@]3(CC[C@H](C(C)(C)C)CC3)C1)CC2 [Example 18, trans-(8-tert-butyl-1-oxa-2-azaspiro[4.5]dec-2-en-3-yl)-(6,7-dimethoxy-3,4-dihydro-1H-isoquinolin-2-yl)methanone]
–	–	–	–	–	–	22.95	8.77	17.54	2.84	–	–	CC(C)(C)[C@H]1CC[C@]2(CC1)CC(C(=O)N1CCN(c3ccc(O)cc3)CC1)=NO2 [Example 10, trans-(8-tert-butyl-1-oxa-2-azaspiro[4.5]dec-2-en-3-yl)-[4-(4-hydroxyphenyl)piperazin-1-yl]methanone]
–	–	–	–	–	–	91	73	25	17	–	–	CC(C)(C)c1ccc(NC(=O)[C@H]2CC[C@@]3(CC2)CC(c2ccccc2)=NO3)cc1 [Example 51, 3-phenyl-1-oxa-2-azaspiro[4.5]dec-2-ene-8-carboxylic acid-cis-(4-tert-butylphenyl)amide]
